Measured values taken from BigSolDB 2.1.

O=C(c1ccc(F)cc1)c1ccc(F)cc1
solubility (mole fraction)
Details	in acetone	in acetonitrile	in ethanol	in ethyl acetate	in isobutanol	in isopropanol	in methanol	in methyl acetate	in n-butanol	in n-propanol
293.15 K	0.0915	0.03	0.0084	0.101	0.0097	0.0079	0.0062	0.0956	0.011	0.0103
298.15 K	0.107	0.0386	0.0104	0.117	0.0125	0.0101	0.0076	0.112	0.014	0.0127
303.15 K	0.126	0.0491	0.0129	0.134	0.0158	0.0131	0.0093	0.131	0.0177	0.0159
308.15 K	0.147	0.0631	0.016	0.155	0.02	0.017	0.0114	0.152	0.0225	0.0197
313.15 K	0.172	0.08	0.0197	0.177	0.0255	0.0217	0.0138	0.177	0.0282	0.0246
318.15 K	0.199	0.101	0.0242	0.203	0.0322	0.0276	0.0168	0.205	0.0354	0.0305
323.15 K	0.231	0.126	0.0297	0.231	0.0407	0.0352	0.0204	0.238	0.0444	0.0378
328.15 K	0.266	0.158	0.0364	0.264	0.0511	0.0445	0.0245	0.274	0.0555	0.0467
333.15 K	0.308	0.197	0.0447	0.299	0.0643	0.056	0.0297	0.316	0.0691	0.0576
